Measurements reported in US20240041877A1, “DOSAGE REGIME AND METHOD FOR TREATING PULMONARY ARTERIAL HYPERTENSION” (Altavant Sciences GmbH, priority 2019, published 2024).

Assays:
Assay type in all cases: in vivo, human
[1] = system: plasma 5-HIAA (a PD marker of 5-HT synthesis); assay: Part 2 (MAD) biomarker: plasma 5-HIAA change from Day 1 predose; conditions: for mean reduction from Day 1 to Day 14 in plasma 5-HIAA: KAR5585 100 mg BID
From the text: (§1) Biomarkers were to be evaluated in Part 2 by measuring concentrations of serotonin (5-hydroxytryptamine [5-HT]) in serum and 5-hydroxyindoleacetic acid (5-HIAA) in plasma and urine. As well, the relationship of biomarkers to PK parameters was to be evaluated.
(§2) The biomarker analysis was to be based on the Biomarker Population (all subjects with evaluable biomarker measurements at baseline [Day 1 predose] and at least one after dosing [Day 7 or Day 14]).
(§3) Biomarker data were to be collected only in Part 2. The following biomarkers were to be analyzed: • Serum 5-HT • Plasma 5-HIAA • Urine 5-HIAA/24 hours (as measured, adjusted, estimated, and per gram creatinine)
The a priori primary biomarker endpoint was to be the change in plasma 5-HIAA concentration on Day 14 from Day 1.
(§4) Summary statistics (mean, standard deviation [SD], median, minimum [Min], and maximum [Max]) were to be tabulated for each biomarker, by Cohort, with absolute and relative (%) changes from Day 1 predose.
(§5) The values were to be tabulated with P values testing whether the difference of changes was equal to 0.
(§6) The biomarker portion of the study was conducted in Part 2 MAD using the Biomarker Population. The biomarkers evaluated were serum 5-HT and plasma 5-HIAA, as well as urine 5-HIAA/24 hours (as measured, adjusted, estimated, and per gram creatinine). Urinary 5-HIAA was determined by a validated (21 C.F.R. 58, GLP-compliant) method using liquid chromatographic separation and tandem mass spectrometry detection.

[2] = system: urine 5-HIAA (a PD marker of 5-HT synthesis); assay: Part 2 (MAD) biomarker: urine 5-HIAA/24 hours (measured, adjusted, estimated, per gram creatinine); conditions: for Measured urine 5-HIAA: mean difference of % change from Day 1 between KAR5585 and placebo / Measured urine 5-HIAA: mean difference of absolute change from Day 1 between KAR5585 and placebo: no creatinine adjustment
From the text: as §1, §2, §3, §4, §5, §6
Urine 5 HIAA/24 hour was analyzed in 4 different manners: as measured in the 24-hour collection and (in order to correct for any collection errors) adjusted for creatinine excretion, estimated by the expected creatinine excretion for the subject (as defined in and expressed per gram creatinine. Results were similar for each of the 4 manners and are presented in this report for measured urine. Tables and figures for adjusted, estimated, and per-gram creatinine results are presented in Section 14.

[3] = system: serum 5-HT; assay: Part 2 (MAD) biomarker: serum 5-HT change from Day 1 predose
From the text: as §1, §2, §3, §4, §5, §6

[4] = Safety and tolerability in healthy adult subjects (SAD and MAD)
[5] = Part 1 (SAD): urine pharmacokinetics (amount excreted, renal clearance) after a single oral dose of KAR5585
[6] = KAR5585 400 mg BID, fed, listed as KAR5575
[7] = all doses pooled, predose Day 7
[8] = all doses pooled, predose Day 14
[9] = KAR5585 in urine, 1200 mg KAR5585 single oral dose, mean

## CCOC(=O)[C@@H]1CC2(CCN(c3cc(O[C@H](c4ccc(Cl)cc4-c4ccccc4)C(F)(F)F)nc(N)n3)CC2)CN1 [KAR5585, (S)-ethyl 8-(2-amino-6-((R)-1-(5-chloro-[1,1′-biphenyl]-2-yl)-2,2,2-trifluoroethoxy)pyrimidin-4-yl)-2,8-diazaspiro[4.5]decane-3-carboxylate]
[1]; 100 mg fasting, predose Day 7
  Plasma 5-HIAA: mean difference of % change from Day 1 between KAR5585 and placebo: 23.67%
  Plasma 5-HIAA: mean difference of absolute change from Day 1 between KAR5585 and placebo: 0.33 ng/mL
[1]; 100 mg fasting, predose Day 14
  Plasma 5-HIAA: mean difference of % change from Day 1 between KAR5585 and placebo: −48.83%
  Plasma 5-HIAA: mean difference of absolute change from Day 1 between KAR5585 and placebo: -5.92 ng/mL
[1]; 100 mg fed, predose Day 7
  Plasma 5-HIAA: mean difference of % change from Day 1 between KAR5585 and placebo: −48.56%
  Plasma 5-HIAA: mean difference of absolute change from Day 1 between KAR5585 and placebo: -4.56 ng/mL
[1]; 100 mg fed, predose Day 14
  Plasma 5-HIAA: mean difference of % change from Day 1 between KAR5585 and placebo: −52.70%
  Plasma 5-HIAA: mean difference of absolute change from Day 1 between KAR5585 and placebo: -4.50 ng/mL
[1]; 200 mg fed, predose Day 7
  Plasma 5-HIAA: mean difference of % change from Day 1 between KAR5585 and placebo: 12.06%
  Plasma 5-HIAA: mean difference of absolute change from Day 1 between KAR5585 and placebo: 1.22 ng/mL
[1]; 200 mg fed, predose Day 14
  Plasma 5-HIAA: mean difference of % change from Day 1 between KAR5585 and placebo: −52.46%
  Plasma 5-HIAA: mean difference of absolute change from Day 1 between KAR5585 and placebo: -5.25 ng/mL
[1]; 400 mg fed, predose Day 7
  Plasma 5-HIAA: mean difference of % change from Day 1 between KAR5585 and placebo: −76.47%
  Plasma 5-HIAA: mean difference of absolute change from Day 1 between KAR5585 and placebo: -11.44 ng/mL
[1]; 400 mg fed, predose Day 14
  Plasma 5-HIAA: mean difference of % change from Day 1 between KAR5585 and placebo: −73.45%
  Plasma 5-HIAA: mean difference of absolute change from Day 1 between KAR5585 and placebo: -10.69 ng/mL
[1]; fasting
  mean reduction from Day 1 to Day 14 in plasma 5-HIAA: −28.71%
[1]; fed
  mean reduction from Day 1 to Day 14 in plasma 5-HIAA: −32.58%
[1]; KAR5585 400 mg BID, fed
  mean percent change in plasma 5-HIAA from Day 1 to Day 7: −56.67%
[1]; [6]
  mean percent change in plasma 5-HIAA concentration from Day 1 to Day 14: −53.33%
[1]; [7]
  Plasma 5-HIAA: mean difference of % change from Day 1 between KAR5585 and placebo: −22.33%
  Plasma 5-HIAA: mean difference of absolute change from Day 1 between KAR5585 and placebo: -3.61 ng/mL
[1]; [8]
  Plasma 5-HIAA: mean difference of % change from Day 1 between KAR5585 and placebo: −57.11%
  Plasma 5-HIAA: mean difference of absolute change from Day 1 between KAR5585 and placebo: -6.69 ng/mL
[1]; each dose group and all doses combined
  mean difference vs placebo of absolute and percent changes from Day 1 to Day 14 in plasma 5-HIAA, significance: statistically significant in favor of KAR5585 compared to placebo in each dose group and for all doses combined at Day 14
[2]; 100 mg fasting, Day 7
  Measured urine 5-HIAA: mean difference of % change from Day 1 between KAR5585 and placebo: −31.97%
  Measured urine 5-HIAA: mean difference of absolute change from Day 1 between KAR5585 and placebo: −0.92 mg/24 hours
[2]; 100 mg fasting, Day 14
  Measured urine 5-HIAA: mean difference of % change from Day 1 between KAR5585 and placebo: −17.65%
  Measured urine 5-HIAA: mean difference of absolute change from Day 1 between KAR5585 and placebo: −0.91 mg/24 hours
[2]; 100 mg fed, Day 7
  Measured urine 5-HIAA: mean difference of % change from Day 1 between KAR5585 and placebo: −50.34%
  Measured urine 5-HIAA: mean difference of absolute change from Day 1 between KAR5585 and placebo: −2.09 mg/24 hours
[2]; 100 mg fed, Day 14
  Measured urine 5-HIAA: mean difference of % change from Day 1 between KAR5585 and placebo: −36.03%
  Measured urine 5-HIAA: mean difference of absolute change from Day 1 between KAR5585 and placebo: −1.65 mg/24 hours
[2]; 200 mg fed, Day 7
  Measured urine 5-HIAA: mean difference of % change from Day 1 between KAR5585 and placebo: −26.95%
  Measured urine 5-HIAA: mean difference of absolute change from Day 1 between KAR5585 and placebo: −0.92 mg/24 hours
[2]; 200 mg fed, Day 14
  Measured urine 5-HIAA: mean difference of % change from Day 1 between KAR5585 and placebo: −37.11%
  Measured urine 5-HIAA: mean difference of absolute change from Day 1 between KAR5585 and placebo: −1.58 mg/24 hours
[2]; 400 mg fed, Day 7
  Measured urine 5-HIAA: mean difference of % change from Day 1 between KAR5585 and placebo: −49.41%
  Measured urine 5-HIAA: mean difference of absolute change from Day 1 between KAR5585 and placebo: −1.68 mg/24 hours
[2]; 400 mg fed, Day 14
  Measured urine 5-HIAA: mean difference of % change from Day 1 between KAR5585 and placebo: −54.82%
  Measured urine 5-HIAA: mean difference of absolute change from Day 1 between KAR5585 and placebo: −2.04 mg/24 hours
[2]; Days 7 and 14
  absolute and percent changes from Day 1 in creatinine-normalized urine 5-HIAA vs placebo, significance: statistically significant in favor of KAR5585 versus placebo in all dose groups
[2]; KAR5585 400 mg BID, fed
  mean percent change in measured urine 5-HIAA from Day 1 to Day 7: −39.97%
[2]; [6]
  mean percent change in measured urine 5-HIAA from Day 1 to Day 14: −50.85%
[2]; all doses pooled, Day 7
  Measured urine 5-HIAA: mean difference of % change from Day 1 between KAR5585 and placebo: −40.03%
  Measured urine 5-HIAA: mean difference of absolute change from Day 1 between KAR5585 and placebo: −1.42 mg/24 hours
[2]; all doses pooled, Day 14
  Measured urine 5-HIAA: mean difference of % change from Day 1 between KAR5585 and placebo: −36.39%
  Measured urine 5-HIAA: mean difference of absolute change from Day 1 between KAR5585 and placebo: −1.54 mg/24 hours
[3]; 100 mg fasting, predose Day 7
  Serum 5-HT: mean difference of % change from Day 1 between KAR5585 and placebo: −10.97%
  Serum 5-HT: mean difference of absolute change from Day 1 between KAR5585 and placebo: -12.97 ng/mL
[3]; 100 mg fasting, predose Day 14
  Serum 5-HT: mean difference of % change from Day 1 between KAR5585 and placebo: −15.92%
  Serum 5-HT: mean difference of absolute change from Day 1 between KAR5585 and placebo: -17.39 ng/mL
[3]; 100 mg fed, predose Day 7
  Serum 5-HT: mean difference of % change from Day 1 between KAR5585 and placebo: −11.02%
  Serum 5-HT: mean difference of absolute change from Day 1 between KAR5585 and placebo: -15.75 ng/mL
[3]; 100 mg fed, predose Day 14
  Serum 5-HT: mean difference of % change from Day 1 between KAR5585 and placebo: −0.47%
  Serum 5-HT: mean difference of absolute change from Day 1 between KAR5585 and placebo: 5.08 ng/mL
[3]; 200 mg fed, predose Day 7
  Serum 5-HT: mean difference of % change from Day 1 between KAR5585 and placebo: −21.64%
  Serum 5-HT: mean difference of absolute change from Day 1 between KAR5585 and placebo: -28.53 ng/mL
[3]; 200 mg fed, predose Day 14
  Serum 5-HT: mean difference of % change from Day 1 between KAR5585 and placebo: −11.43%
  Serum 5-HT: mean difference of absolute change from Day 1 between KAR5585 and placebo: -5.79 ng/mL
[3]; 400 mg fed, predose Day 7
  Serum 5-HT: mean difference of % change from Day 1 between KAR5585 and placebo: 2.09%
  Serum 5-HT: mean difference of absolute change from Day 1 between KAR5585 and placebo: 16.47 ng/mL
[3]; 400 mg fed, predose Day 14
  Serum 5-HT: mean difference of % change from Day 1 between KAR5585 and placebo: −50.02%
  Serum 5-HT: mean difference of absolute change from Day 1 between KAR5585 and placebo: -84.50 ng/mL
[3]; Day 7
  mean difference vs placebo of percent changes from Day 1 in serum 5-HT concentration, significance: statistically significant compared to placebo on Day 7 in favor of the 200 mg fed dose group
[3]; [7]
  Serum 5-HT: mean difference of % change from Day 1 between KAR5585 and placebo: −10.39%
  Serum 5-HT: mean difference of absolute change from Day 1 between KAR5585 and placebo: -10.19 ng/mL
[3]; [8]
  Serum 5-HT: mean difference of % change from Day 1 between KAR5585 and placebo: −20.26%
  Serum 5-HT: mean difference of absolute change from Day 1 between KAR5585 and placebo: -27.14 ng/mL
[4]; 100 mg (fasting), 100, 200, 400 mg (fed) BID up to 14 days, 36 healthy adult subjects
  safety and tolerability: safe and well-tolerated
[4]; 400 mg single oral dose, fed, 9 healthy adult subjects
  tolerability: well-tolerated
[4]; Part 1 and Part 2, all doses
  tolerability, whole trial: well tolerated throughout the trial
[4]; single ascending oral dose 100-2000 mg, fasting, 54 healthy adult subjects
  safety and tolerability: safe and well-tolerated
[5]; [9]
  Amount Excreted (Ae): 0 µg
  Total Excreted (%): 0%
[5]; KAR5585 in urine, 2000 mg KAR5585 single oral dose, mean
  Total Excreted (%): 0.0000751%
[5]; human, urine, po, 400 mg, KAR5585, 400 mg (Fasted) KAR5585 single oral dose, mean
  CL renal: 0.858 mL/min
[5]; single oral KAR5585, all dose levels
  amount excreted (Ae) in urine: less than 0.004 % of the administered dose
